Reference: patent publication US6653442B1, “Protegrins” (priority 1993, dated 2003)
Bridge positions count the residues as written; N and C are the ends. Peptide text beside a SMILES is read from it.

Tests used:
E. coli ML-35P = experiment: Radial diffusion assay in agarose gels, E. coli; type: cell-based
[1] = tested on: Listeria monocytogenes, strain EGD; experiment: Radial diffusion assay in agarose gels, L. monocytogenes; type: cell-based; details: radial diffusion, underlay agar pH 6.5
Procedure: Aliquots (66 μl) of each fraction were dried by vacuum centrifugation and resuspended in 6.6 μl of 0.01% acetic acid. Five μl samples of this concentrate were tested for antimicrobial activity against E. coliML-3, L. monocytogenes, strain EGD and C. albicans, strain 820, using radiodiffusion and gel overlay techniques as described by Lehrer, R. I. et al. J Immunol Meth (1991) 137:167-173. […] The units of activity in the radial diffusion assay were measured as described; 10 units correspond to a 1 mm diameter clear zone around the sample well. Activity was found in a large number of fractions.
The radial diffusion assay in agarose gels described in Example 1 was also used to test the activity of the purified protegrins. FIGS. 4a, 4b and 4c show the results against three test organisms in units described as above.
The antimicrobial activity of the linearalized forms was also compared with that of the native protegrins. Both linearalized and cyclic forms of the protegrins tested continue to show antimicrobial activity, although the effectiveness of these peptides as antimicrobials depends on the nature of the target organism and on the test conditions. The antimicrobial activity of native PG-1 and its linearalized form (cam-PG-1) and PG-3 and its linearalized form (cam-PG-3) were tested according to the procedure set forth in Example 1 as described by Lehrer, R. I. et al. J Immunol Meth (1991) 137:167-173.
Using standard solid phase techniques, a protegrin having the amino acid sequence of PG-1, but wherein every amino acid is in the D form was prepared. This form of protegrin was tested against E. coli, L. monocytogenes, C. albicans and other microbes in the absence and presence of protease and otherwise as described for the radiodiffusion assay in agarose gels set forth in Example 1.
The kite and bullet PG-1 compounds prepared in Example 12 were tested for antimicrobial activity using the radial diffusion assay described in Example 1 as published by Lehrer, R. I. et al., J Immunol Meth (1991) 137:167-173, except that the underlay agars contained […] sodium phosphate buffer with a final pH of 7.4. As described in Example 1, 0.3 mg/ml tripticase soy broth powder and 1% agarose were used as well in the underlay agar. In some cases 100 mM NaCl or RPMI plus 2.5% normal human serum (NHS) was added to the agar.

C. albicans, strain 820 = type: cell-based, Candida albicans
Procedure: Similarly, using C. albicans as a target organism, underlayers were prepared with 10 mM sodium phosphate with and without 10% normal human serum.

human leukocyte elastase = human leukocyte elastase (Homo sapiens, UniProt P08246); type: in vitro ADME; details: pH 7
Sequence of human leukocyte elastase (P08246 30-267): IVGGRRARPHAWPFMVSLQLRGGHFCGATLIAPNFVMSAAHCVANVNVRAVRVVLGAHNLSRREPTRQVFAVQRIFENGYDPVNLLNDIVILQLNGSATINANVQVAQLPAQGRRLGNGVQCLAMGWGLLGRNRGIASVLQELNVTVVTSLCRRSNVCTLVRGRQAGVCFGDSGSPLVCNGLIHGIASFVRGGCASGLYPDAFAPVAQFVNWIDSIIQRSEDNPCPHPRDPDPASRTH

[2] = biological target: human leukocyte cathepsin G (Homo sapiens, UniProt P08311); type: in vitro ADME; details: pH 7
Sequence of human leukocyte cathepsin G (P08311 21-244): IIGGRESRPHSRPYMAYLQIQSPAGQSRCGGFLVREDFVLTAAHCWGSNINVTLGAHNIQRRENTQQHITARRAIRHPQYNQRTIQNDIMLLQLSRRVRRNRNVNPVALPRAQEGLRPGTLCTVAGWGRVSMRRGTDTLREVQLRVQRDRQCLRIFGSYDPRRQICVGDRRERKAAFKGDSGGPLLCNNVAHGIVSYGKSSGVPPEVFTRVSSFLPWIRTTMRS

[3] = tested on: lipid polysaccharide (LPS) of E. coli strain 0.55B5; experiment: Limulus amebocyte lysate (LAL) test for endotoxin binding; type: biochemical; details: for gel formation in LAL test: LPS 0.05 endotoxin unit/ml
Candida albicans = experiment: Radial diffusion assay in 25 mM borate buffer, Candida albicans; type: cell-based; details: listed as nPG-3
L. monocytogenes = experiment: Radial diffusion assay in 25 mM borate buffer, L. monocytogenes; type: cell-based; details: listed as nPG-3
E. coli = experiment: Antimicrobial activity with and without lysozyme in borate buffered saline; type: cell-based; details: presence vs absence of lysozyme
From the text: This effect was more pronounced when the PG-3 was autoclaved and similar patterns were obtained for both the free-acid form and the amide. Accordingly, the protegrins may be used as preservatives in such compositions or as antimicrobials for treatment of eye infections.

pepsin = details: 4 hours at pH 2.0 with 0.5 μg/ml pepsin, then neutralized
[4] = tested on: Trichomonas vaginallis strain C1 (ATCC 30001); strains MR and TV; experiment: Trichomonas vaginallis exposure assay; details: 25 μg/ml
[5] = radial diffusion, underlay agar pH 6.5

CC(C)C[C@H](NC(=O)CNC(=O)CNC(=O)CNC(=O)[C@@H](N)CCCNC(=N)N)C(=O)N[C@H]1CSSC[C@@H](C(=O)N[C@H](C(=O)NCC(=O)N[C@@H](CCCNC(=N)N)C(N)=O)C(C)C)NC(=O)[C@H](C(C)C)NC(=O)[C@@H]2CSSC[C@H](NC(=O)[C@H](Cc3ccc(O)cc3)NC1=O)C(=O)N[C@@H](CCCNC(=N)N)C(=O)N[C@@H](CCCNC(=N)N)C(=O)N[C@@H](CCCNC(=N)N)C(=O)N[C@@H](Cc1ccccc1)C(=O)N2 [PG-3, R-G-G-G-L-C-Y-C-R-R-R-F-C-V-C-V-G-R] (H-RGGGLCYCRRRFCVCVGR-NH2; disulfide 6-15, 8-13; N-terminus assumed) was tested, and the “activity against E. coli in NaCl (FIG. 5b)” value (E. coli ML-35P; in the presence of 100 mM NaCl) was “retain their activity”, the “antibacterial activity against E. coli (FIG. 4a)” value (E. coli ML-35P; [5]) was “more effective against E. coli ML-35P than HNP-1 and only slightly less effective than NP-1” and the “antibacterial activity against Listeria monocytogenes (FIG. 4b)” value [1] was “effective”. The “activity against Candida albicans in fetal calf serum (FIG. 5c)” value (C. albicans, strain 820; 90% fetal calf serum) was “retained”, the “activity against C. albicans in NaCl (FIG. 5a)” value (C. albicans, strain 820; in the presence of 100 mM NaCl) was “retain their activity” and the “antifungal activity against Candida albicans (FIG. 4c)” value (C. albicans, strain 820; [5]) was “effective”. For the same compound, the “degradation by human leukocyte elastase” value (human leukocyte elastase) was “not degraded”, the “degradation by human leukocyte cathepsin G” value [2] was “not degraded” and the “gel formation in LAL test, cyclic vs linearalized (Table 3)” value ([3]; 2.5 μg peptide) was “no gel”. The “gel formation in LAL test” value ([3]; 2.5 μg peptide in 0.2 ml, listed as nPG-3) was “trace”, the “gel formation in LAL test, cyclic vs linearalized (Table 3)” value ([3]; 5 μg peptide) was “no gel” and the “gel formation in LAL test” value ([3]; 5 μg peptide in 0.2 ml) was “no gel”. The “gel formation in LAL test” value ([3]; 10 μg peptide in 0.2 ml) was “no gel”, the “ESTIMATED MINIMAL FUNGICIDAL CONCENTRATIONS” value (Candida albicans; 25 mM borate buffer) was 32.0 µg/mL and the “ESTIMATED MINIMAL FUNGICIDAL CONCENTRATIONS” value (Candida albicans; borate buffer + 120 mM NaCl) was 9.0 µg/mL. For the same compound, the “ESTIMATED MINIMAL FUNGICIDAL CONCENTRATIONS” value (Candida albicans; borate buffer + EDTA & NaCl) was 8.0 µg/mL, the “ESTIMATED MINIMAL BACTERICIDAL CONCENTRATIONS” value (L. monocytogenes; 25 mM borate buffer) was 25.0 µg/mL and the “ESTIMATED MINIMAL BACTERICIDAL CONCENTRATIONS” value (L. monocytogenes; borate buffer + 120 mM NaCl) was 7.0 µg/mL. For the same compound, the “ESTIMATED MINIMAL BACTERICIDAL CONCENTRATIONS” value (L. monocytogenes; borate buffer + EDTA & NaCl) was 5.7 µg/mL, the “effect of lysozyme on effectiveness against E. coli” value (E. coli) was “enhanced the effectiveness” and the “residual antimicrobial activity against C. albicans, E. coli and L. monocytogenes after pepsin” value (pepsin) was “fully retained”. The “motility of T. vaginallis” value [4] was “retained their motility”.
